The data set can be described thus: Accumulation of metals in liver and kidney tissues, intraperitoneal administration to intact rats. Format: in vivo, rat.

Protocol: Animals are placed in cages, 4 per cage, with free access to food/water. […] After the last injection, a half of the animals are maintained on hunger (for 12 hours) with free access to water. Upon expiration of this time period, the animals are taken out of the experiment. The second half of the animals continues to have free access to food/water for a further 7 days. On day 6 after the last injection, the animals are maintained on hunger (for 12 hours) with free access to water. Upon expiration of this time period, the animals are taken out of the experiment.
The total kidney, liver and muscle homogenates were prepared as follows. Organ excision and homogenization were carried out at a temperature of 1-4° C. […] The volume of the used buffer in ml was 5 times larger than the mass of isolated organs in grams. The isolated liver was perfused with chilled saline (0.9% NaCl) via the portal vein using a syringe. The minced liver was transferred to a homogenizer with a finely ground Teflon pestle and homogenized in chilled buffer. An isolated pair of kidneys was perfused with chilled saline, released from adipose tissue and minced with scissors. The minced tissue was transferred to a homogenizer with a finely ground Teflon pestle and homogenized in chilled buffer. The total kidney and liver homogenates were centrifuged at 600 g for 15 minutes. […]

Turning to `CC(=O)[O-].CC(=O)[O-].[Zn+2]` [Zn acetate, Zinc acetate], the “Zinc in the kidney and liver tissues” value (day 1 and day 7 after discontinuation of the substances) was “significantly increased”. Also, the “All other analyzed metals (manganese and copper) in kidney and liver tissues” value (intact rats, intraperitoneal) was “within the same concentrations as in the control group”.

The values are drawn from patent US11596650B2, “Composition and method for the treatment of type 2 diabetes” (Vector Vitale IP LLC, priority 2019, dated 2023).
